Numbered stars: 1 amine (or outer) side, 2 acyl side, 3 side chain; on linkers, the order of the positions; unused ones are H or OH. Bridge positions count the residues as written; N and C are the ends. Square brackets hold non-standard residues; d marks the D form. Peptide text beside a SMILES is read from it. I, II: the chains in the order shown. ξ: configuration not given here. Phe(4-tBu) = CC(C)(C)c1ccc(C[C@H](N)C(=O)O)cc1; Diglycolyl = O=C(COCC(=O)[*:2])[*:1]; NMeR = CN[C@@H](CCCNC(=N)N)C(=O)O; β3hE = N[C@@H](CCC(=O)O)CC(=O)O; Thr(3ξ) = CC(O)[C@H](N)C(=O)O; X1 = O=C(c1ccccc1C[*:2])[*:1]; Pen = CC(C)(S)[C@H](N)C(=O)O
Assays:
[1] = Study 1 pharmacokinetics in healthy male volunteers (liquid solution); conditions: for Tmax / half-life / dose excreted: male, human; for Tmax / half-life: plasma; for dose excreted: urine, recovered intact in urine over 24 hours, multiple dose
Protocol: Dose escalation proceeded from 100 mg, 300 mg, 1000 mg, 1400 mg. Subjects in the 300 mg dose cohort received treatment in the fasted state on one occasion and following a high fat meal on a second occasion in a crossover fashion. The high fat meal consisted of two eggs fried in butter, two strips of bacon, two slices of toast with butter, four ounces of hash brown potatoes and 240 ml of whole milk. During Part 1, subjects refrained from food and drink except water for 10 hours before and for four hours after dosing with the exception of subjects in the 300 mg dose cohort during the fed treatment.
Part 2 was a randomized, placebo-controlled, double-blind multiple ascending dose study in 50 male subjects divided equally into 5 cohorts. […] Doses evaluated in Part 2 included 100 mg, 300 mg and 1000 mg. During Part 2, two cohorts of subjects (100 mg and 300 mg) received food approximately 30 minutes prior to each dose and another two cohorts of subjects (300 mg and 100 mg) refrained from food for 10 hours before and for 1 hour after dosing.
Study 1: The single and multiple ascending dose phase of the study consisted of sequential dose escalations in 10 subject per dose cohort. […] Dose solutions were formulated in 50 mM phosphate buffer pH 7.4 and were prepared weekly by a qualified pharmacist.
Blood samples for pharmacokinetics were collected predose and for 48 hours postdose following single doses. In the multiple ascending dose phase, blood samples were obtained on Days 1-3 and 14-16; on Days 8 samples were obtained predose, 4, and 12 hours. On Day 10 of the MAD, subjects were required to collect all urine for the 0-6, 6-12, 12-18, and 18-24 hour intervals postdose and on Day 11 subjects were required to collect fecal samples.
The drug and internal standard were extracted from the matrix by a protein precipitation procedure. The limit of quantitation was 0.2 ng/mL, 20 ng/mL, and 100 ng/mL in plasma, urine, and feces, respectively. […] Coefficient of determinations for the calibration curves were at least 0.99 for all matrices. The interassay accuracy (% bias) ranged from −2.2% to 1.0% for plasma, −3.8% to 9.0% for urine and −5.0 to 5.2% for feces. Interassay precision (% CV) ranged from 3.7% to 7.7% for plasma, 2.8% to 7.0% for urine, and 1.2% to 5.2% for feces.
Pharmacokinetic parameters were estimated by noncompartmental methods using Phoenix WinNonlin (Certara, Princeton N.J.). Peak plasma concentration (Cmax) and time to peak plasma concentration (Tmax) were observed values. The elimination rate was estimated from the slope of the least-squares regression on the terminal log-linear phase. Area under the plasma concentration-time curve from time zero to the last quantifiable concentration (AUCt) was estimated by a linear trapezoidal method and was extrapolated to infinity (AUC∞) by dividing the last quantifiable concentration b the elimination rate.

α4β7 integrin = molecular target: T1, α4β7 integrin (Homo sapiens, UniProt P13612+P26010); assay: MAdCAM1-mediated cytokine production by CD4+ T-cells (MSD/luminex multiplex); assay type: cell-based; conditions: IFNγ, IL-5, IL-6, IL-10, IL-13, GM-CSF, TNFα; three donors
T1 construct: endogenous in cells; host or cells: primary human CD4+ T cells enriched from PBMCs of healthy donors
T1 sequence (P13612 34-1032): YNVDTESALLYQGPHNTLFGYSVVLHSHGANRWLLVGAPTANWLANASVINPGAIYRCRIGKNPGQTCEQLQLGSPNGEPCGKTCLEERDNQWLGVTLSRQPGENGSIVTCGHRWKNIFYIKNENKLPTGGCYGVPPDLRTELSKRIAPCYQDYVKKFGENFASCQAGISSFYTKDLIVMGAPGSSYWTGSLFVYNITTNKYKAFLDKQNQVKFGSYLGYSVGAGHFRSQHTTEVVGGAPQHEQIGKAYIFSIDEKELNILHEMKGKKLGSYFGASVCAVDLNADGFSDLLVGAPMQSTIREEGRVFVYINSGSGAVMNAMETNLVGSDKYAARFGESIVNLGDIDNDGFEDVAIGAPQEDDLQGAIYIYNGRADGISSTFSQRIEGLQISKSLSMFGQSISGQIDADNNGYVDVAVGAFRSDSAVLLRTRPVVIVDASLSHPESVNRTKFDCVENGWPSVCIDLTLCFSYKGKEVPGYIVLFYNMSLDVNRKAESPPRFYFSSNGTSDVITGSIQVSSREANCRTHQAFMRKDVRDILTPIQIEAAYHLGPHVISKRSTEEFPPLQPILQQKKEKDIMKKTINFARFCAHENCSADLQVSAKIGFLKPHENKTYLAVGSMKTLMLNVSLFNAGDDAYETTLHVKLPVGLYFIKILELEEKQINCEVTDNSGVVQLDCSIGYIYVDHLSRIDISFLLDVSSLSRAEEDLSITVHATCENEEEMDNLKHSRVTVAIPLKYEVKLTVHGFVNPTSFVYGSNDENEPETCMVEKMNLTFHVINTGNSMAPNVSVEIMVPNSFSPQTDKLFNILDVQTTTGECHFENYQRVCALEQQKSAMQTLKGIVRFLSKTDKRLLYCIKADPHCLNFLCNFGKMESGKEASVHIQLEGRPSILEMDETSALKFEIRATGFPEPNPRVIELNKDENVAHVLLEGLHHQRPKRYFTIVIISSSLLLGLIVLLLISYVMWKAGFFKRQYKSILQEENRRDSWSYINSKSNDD
T1 sequence (P26010 20-798): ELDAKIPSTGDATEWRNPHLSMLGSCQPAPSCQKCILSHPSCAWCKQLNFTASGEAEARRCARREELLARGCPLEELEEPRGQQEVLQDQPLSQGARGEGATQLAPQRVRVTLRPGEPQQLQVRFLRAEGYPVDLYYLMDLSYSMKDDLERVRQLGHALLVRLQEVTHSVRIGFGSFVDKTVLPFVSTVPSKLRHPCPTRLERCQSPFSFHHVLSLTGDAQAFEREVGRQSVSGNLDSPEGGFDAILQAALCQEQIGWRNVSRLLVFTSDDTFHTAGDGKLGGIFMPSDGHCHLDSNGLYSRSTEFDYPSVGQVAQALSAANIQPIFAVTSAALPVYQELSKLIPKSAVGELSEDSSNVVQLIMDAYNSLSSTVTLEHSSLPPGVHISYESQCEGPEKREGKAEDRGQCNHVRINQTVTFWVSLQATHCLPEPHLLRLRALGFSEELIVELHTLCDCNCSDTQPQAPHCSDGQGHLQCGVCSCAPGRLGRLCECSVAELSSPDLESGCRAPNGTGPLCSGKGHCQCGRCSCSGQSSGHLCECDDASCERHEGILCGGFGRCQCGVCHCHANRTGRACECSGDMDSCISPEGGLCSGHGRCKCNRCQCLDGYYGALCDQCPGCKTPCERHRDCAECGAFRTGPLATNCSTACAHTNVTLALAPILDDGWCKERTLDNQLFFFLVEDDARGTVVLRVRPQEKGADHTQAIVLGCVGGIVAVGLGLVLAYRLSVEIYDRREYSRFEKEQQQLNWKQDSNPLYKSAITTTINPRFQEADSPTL
Protocol: PBMCs were purified from three healthy human donors (Donors 7, 10, and 11), and enrichment of CD4+ T cells was performed.

[2] = system: gut homing of ATRA+ T cells; assay: Gut homing of cultured T cells transferred into recipient mice; assay type: in vivo, C57BL/6 mice
Protocol: Purified CD3+ cells were isolated from B6.SJL (CD45.1+) donor mice and cultured in the presence of anti-CD3/anti-CD28 beads and IL-2 to induce T cell activation and proliferation. In some culture conditions, Compound A and/or ATRA were added. To track the cells in vivo, ATRA− and ATRA+ cells were labeled with CMFDA and CTFR respectively. These labeled cells were then co-injected into C57BL/6 (CD45.2+) recipient mice.
The proportion of ATRA− and ATRA+ cells in spleen, Peyer's patches (PP), and ileal lamina propria (LP) of the recipient mice was measured by flow cytometry to evaluate cell homing.
Thirty-eight (38) C57BL/6 (CD45.2+) recipient mice were acclimated for 9 weeks before the start of the study (Day 0) and were 16 weeks old at cell transfer (Day 5). On Day 4, recipient mice were assigned to groups in a balanced manner to achieve similar average weight across the groups.
On Day 5, after removal of CD3/CD28 beads from cell cultures with a magnet, ATRA+ cells were labeled with CFTR, and ATRA− cells were labeled with CMFDA. Cells from each culture condition were then counted. For each group, ATRA− cells and cells from one of the ATRA+ culture conditions were mixed at a 1:1 ratio per Table 8 below and transferred into the recipient mice. Approximately 13 million of each type of cells (total of 26 million cells) were injected i.v. into each mouse.
Mice in Group 2 were dosed with anti-VLA-4 once, on Day 5 prior to cell transfer. Anti-VLA-4 (PS/2) antibodies were purchased from BioXCell and were kept at −80 C until needed. Antibodies were diluted to a final concentration of 1 mg/mL with sterile PBS and dosed at 10 mg/kg, intraperitoneally. No in vivo treatment was administered to other groups.
Twenty (20) to 22 hours after cell transfer all mice were euthanized, and their blood, spleen, Peyer's patches and small intestines collected. Approximately 50 μL of plasma was isolated from the blood of each mouse and sored on dry ince until further analysis.
Cells from the following tissues were isolated from each mouse for flow cytometric analysis: • Spleen • Peyer's patches • Ileal lamina propria Isolated cells were counted and stained with anti-CD45.1 antibodies and live/dead stain. Cells were then acquired for flow cytometric analysis and the proportions of CD45.1+, ATRA+ and ATRA− cells in each tissue determined.

CC(C)C[C@@H]1NC(=O)[C@H](C(C)O)NC(=O)[C@H](CC(=O)O)NC(=O)[C@H](CO)NC(=O)[C@H](CCCNC(=N)N)N(C)C(=O)c2ccccc2CSC(C)(C)[C@@H](C(=O)N[C@@H](Cc2ccc(C(C)(C)C)cc2)C(=O)N[C@@H](CCC(=O)O)CC(=O)N[C@H](CCCCNC(=O)COCC(=O)NCCCC[C@@H](NC(=O)C[C@H](CCC(=O)O)NC(=O)[C@H](Cc2ccc(C(C)(C)C)cc2)NC(=O)[C@H]2NC(=O)[C@H](CC(C)C)NC(=O)[C@H](C(C)O)NC(=O)[C@H](CC(=O)O)NC(=O)[C@H](CO)NC(=O)[C@H](CCCNC(=N)N)N(C)C(=O)c3ccccc3CSC2(C)C)C(=O)O)C(=O)O)NC1=O (stereo partly drawn) [Compound A, ((2-Benzyl)-(N-Me-R)-Ser-Asp-Thr-Leu-Pen-(Phe(4-tBlu))-(β-homo-Glu)-(D-Lys)-OH)2 (SEQ ID NO: 5) and linker-DIG diglycolic acid] (I: [NMeR]SD[Thr(3ξ)]L[Pen][Phe(4-tBu)][β3hE][dK]-OH / II: [NMeR]SD[Thr(3ξ)]L[Pen][Phe(4-tBu)][β3hE][dK]-OH; linker I:9-II:9 via Diglycolyl; linker I:N-I:6, II:N-II:6 via X1)
Tmax ([1]; oral, 1400 mg, Tmax (h), single dose 1400 mg, Median (Min, Max)): 4 h
half-life ([1]; oral, 1400 mg, mean elimination half-life, single doses 1000 and 1400 mg): 5.3 to 5.7 h
half-life ([1]; oral, 1400 mg, t½ (h), single dose 1400 mg, Mean ± SD): 5.74 ± 1.35 h
half-life ([1]; oral, mean elimination half-life, multiple doses): 5.2 to 7.7 h
half-life ([1]; oral, terminal half-life, fasted state): 3.1 to 5.7 h
half-life ([1]; oral, terminal half-life, fed state): 5.2 to 7.7 h
Tmax ([1]; po, 300 mg, median time to peak plasma concentration, single dose 300 mg, meal 30 minutes after dosing): 1 h
dose excreted ([1]; po, 300 mg, 300 mg fasted): 0.028%
dose excreted ([1]; po, 300 mg, 300 mg fed): 0.056%
dose excreted ([1]; po, 1000 mg): 0.056%
accumulation ([1]; once daily): approximately 0.9 fold
median time to peak plasma concentration ([1]; single dose 300 mg, meal 60 minutes after dosing): 2 h
median time to peak plasma concentration ([1]; single dose 300 mg, meal 90 minutes after dosing): 4 h
accumulation ([1]; twice-daily): ~1.6 fold
inhibition of MAdCAM1-mediated cytokine production (α4β7 integrin): Concentration-dependent and full inhibition
ATRA+/10^3 live cells +/− SD in Ileal LP ([2]; cells cultured with 100 nM): 4.3 +/− 1.7 /10^3 live cells
ATRA+/10^3 live cells +/− SD in Peyer's patches ([2]; cells cultured with 100 nM): 0.3 +/− 0.2 /10^3 live cells
ATRA+/10^3 live cells +/− SD in spleen ([2]; cells cultured with 100 nM): 2.9 +/− 0.3 /10^3 live cells
ATRA−/10^3 live cells +/− SD in Ileal LP ([2]; cells cultured with 100 nM): 0.3 +/− 0.1 /10^3 live cells
ATRA−/10^3 live cells +/− SD in Peyer's patches ([2]; cells cultured with 100 nM): 0.2 +/− 0.2 /10^3 live cells
ATRA−/10^3 live cells +/− SD in spleen ([2]; cells cultured with 100 nM): 9.0 +/− 1.1 /10^3 live cells
CD45.1+ cells/10^3 live cells +/− SD, Ileal LP ([2]; cells cultured with 100 nM): 4.6 +/− 1.8 /10^3 live cells
CD45.1+ cells/10^3 live cells +/− SD, Peyer's patches ([2]; cells cultured with 100 nM): 0.6 +/− 0.3 /10^3 live cells
CD45.1+ cells/10^3 live cells +/− SD, Spleen ([2]; cells cultured with 100 nM): 12.1 +/− 1.4 /10^3 live cells
Total number of cells isolated (×10^3), Ileal LP ([2]; cells cultured with 100 nM): 2005 +/− 1276 ×10^3
Total number of cells isolated (×10^3), Peyer's patches ([2]; cells cultured with 100 nM): 673 +/− 295 ×10^3
Total number of cells isolated (×10^3), Spleen ([2]; cells cultured with 100 nM): 100650 +/− 10215 ×10^3
ATRA+/10^3 live cells +/− SD in Ileal LP ([2]; cells cultured with 1000 nM): 3.5 +/− 1.8 /10^3 live cells
ATRA+/10^3 live cells +/− SD in Peyer's patches ([2]; cells cultured with 1000 nM): 0.3 +/− 0.1 /10^3 live cells
ATRA+/10^3 live cells +/− SD in spleen ([2]; cells cultured with 1000 nM): 2.4 +/− 0.5 /10^3 live cells
ATRA−/10^3 live cells +/− SD in Ileal LP ([2]; cells cultured with 1000 nM): 0.2 +/− 0.1 /10^3 live cells
ATRA−/10^3 live cells +/− SD in Peyer's patches ([2]; cells cultured with 1000 nM): 0.2 +/− 0.1 /10^3 live cells
ATRA−/10^3 live cells +/− SD in spleen ([2]; cells cultured with 1000 nM): 8.0 +/− 1.4 /10^3 live cells
CD45.1+ cells/10^3 live cells +/− SD, Ileal LP ([2]; cells cultured with 1000 nM): 3.8 +/− 1.7 /10^3 live cells
CD45.1+ cells/10^3 live cells +/− SD, Peyer's patches ([2]; cells cultured with 1000 nM): 0.6 +/− 0.1 /10^3 live cells
CD45.1+ cells/10^3 live cells +/− SD, Spleen ([2]; cells cultured with 1000 nM): 10.6 +/− 1.9 /10^3 live cells
Total number of cells isolated (×10^3), Ileal LP ([2]; cells cultured with 1000 nM): 1730 +/− 1023 ×10^3
Total number of cells isolated (×10^3), Peyer's patches ([2]; cells cultured with 1000 nM): 775 +/− 360 ×10^3
Total number of cells isolated (×10^3), Spleen ([2]; cells cultured with 1000 nM): 90617 +/− 13418 ×10^3

Reference: patent US20230063321A1, “Methods for Treating Inflammatory Bowel Diseases with alpha4beta7 Integrin Antagonists” (Protagonist Therapeutics, Inc., priority 2020, published 2023)
